Test results reported in patent US9611256B2, “Alkyne-, azide- and triazole-containing flavonoids as modulators for multidrug resistance in cancers” (The Hong Kong Polytechnic University, priority 2012, dated 2017).

Legend:
in vitro = details: mouse
BCRP = biological target: T1, BCRP (Homo sapiens, UniProt Q9UNQ0); assay: Reversal of BCRP-mediated topotecan resistance in MCF7-MX100 cells (cell proliferation assay); details: for % of reversion of sensitivity of MCF7-MX100 towards topotecan: triazole dimers at 1.0 μM; for Topotecan resistance of MCF7-MX100 Therapeutic index: (IC50 towards L929 or Raw264.7)/(EC50 for reversing drug resistance)
T1 sequence (Q9UNQ0 1-655): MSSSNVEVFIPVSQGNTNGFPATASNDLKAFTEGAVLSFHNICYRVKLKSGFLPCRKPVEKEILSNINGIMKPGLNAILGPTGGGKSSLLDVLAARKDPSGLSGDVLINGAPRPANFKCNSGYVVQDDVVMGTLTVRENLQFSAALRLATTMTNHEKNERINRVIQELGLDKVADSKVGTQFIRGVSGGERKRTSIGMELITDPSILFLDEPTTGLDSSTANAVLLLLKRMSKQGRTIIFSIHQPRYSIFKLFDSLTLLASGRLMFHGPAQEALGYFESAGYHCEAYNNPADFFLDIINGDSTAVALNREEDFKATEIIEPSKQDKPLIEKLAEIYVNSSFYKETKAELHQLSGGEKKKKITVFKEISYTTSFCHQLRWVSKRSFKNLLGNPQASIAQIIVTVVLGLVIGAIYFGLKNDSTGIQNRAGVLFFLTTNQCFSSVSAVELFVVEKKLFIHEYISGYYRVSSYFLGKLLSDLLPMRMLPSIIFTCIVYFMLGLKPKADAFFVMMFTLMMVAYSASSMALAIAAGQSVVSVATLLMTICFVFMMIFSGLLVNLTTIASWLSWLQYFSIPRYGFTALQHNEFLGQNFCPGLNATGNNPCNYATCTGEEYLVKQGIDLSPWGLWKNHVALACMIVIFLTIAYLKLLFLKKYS

[1] = system: P-gp, MRP1 and BCRP transporters; assay: Selectivity for ABC transporters, determined from % of reversion (Tables 1 and 2); type: cell-based, human; details: determined from % of reversion in Table 1 (>80% strongly, 79-50% moderately selective)
Text: Generally, the triazole dimers library can be divided into mono-selective, dual-selective and multi-selective ABC transporter modulators. Table 2 summarizes the selectivity of different active triazole dimers and some monomeric azides for the ABC transporters. […] From the study, it seems that the simple monomeric azides could be a highly BCRP-selective inhibitor. […] It is possible that differently selective (mono-, dual- and multi-) inhibitors of drug transporters could be potentially useful tools for investigation of complicated drug-resistance phenotypes and eventually, for treatment of drug-resistant cancers caused by overexpression of ABC transporters.
The selectivity of active triazole compounds for various ABC transporters was determined from the Table 1. It would be considered as strongly selective if it causes >80% of reversion. It would be considered as moderately selective if it results in 79-50% of reversion. Overall, the active triazole compounds can be divided into mono-, dual- and multi-selective for P-gp, MRP1 and BCRP transporters.

IC50 at 5 days (in vitro) | Selectivity for ABC transporters (P-gp, MRP1, BCRP) [1] | Structure (SMILES) | % of reversion of sensitivity of MCF7-MX100 towards topotecan (BCRP) | Topotecan resistance of MCF7-MX100 Therapeutic index (BCRP)
> 100 µM |  | O=c1cc(-c2ccc(OCCOCCn3cc(CCCOc4ccc(-c5cc(=O)c6ccc(F)cc6o5)cc4)nn3)cc2)oc2ccccc12 [Ac3Az1, 7-Fluoro-2-(4-(3-(1-(2-(2-(4-(4-oxo-4H-chromen-2-yl)phenoxy)ethoxy)ethyl)-1H-1,2,3-triazol-4-yl)propoxy)phenyl)-4H-chromen-4-one] | about 53.3% | 
< 12.1 µM |  | COCOc1cc(OCc2ccccc2)c2c(=O)cc(-c3ccc(OCCCc4cn(CCOCCOc5ccc(-c6cc(=O)c7ccccc7o6)cc5)nn4)cc3)oc2c1 [Ac4Az1, 5-(Benzyloxy)-7-(methoxymethoxy)-2-(4-(3-(1-(2-(2-(4-(4-oxo-4H-chromen-2-yl)phenoxy)ethoxy)ethyl)-1H-1,2,3-triazol-4-yl)propoxy)phenyl)-4H-chromen-4-one] |  | 
 | P-gp and MRP1-dual-selectivity | Cc1ccc2oc(-c3ccc(OCCCCc4cn(CCOCCOCCOc5ccc(-c6cc(=O)c7cc(C)ccc7o6)cc5)nn4)cc3)cc(=O)c2c1 [Ac5Az3, 6-Methyl-2-(4-(2-(2-(2-(4-(4-(4-(6-methyl-4-oxo-4H-chromen-2-yl)phenoxy)butyl)-1H-1,2,3-triazol-1-yl)ethoxy)ethoxy)ethoxy)phenyl)-4H-chromen-4-one] |  | 
< 12.1 µM |  | Cc1ccc2oc(-c3ccc(OCCCCc4cn(CCOCCOCCOc5ccc(-c6oc7ccccc7c(=O)c6O)cc5)nn4)cc3)cc(=O)c2c1 [Ac5Az5OH, 3-Hydroxy-2-(4-(2-(2-(2-(4-(4-(4-(6-methyl-4-oxo-4H-chromen-2-yl)phenoxy)butyl)-1H-1,2,3-triazol-1-yl)ethoxy)ethoxy)ethoxy)phenyl)-4H-chromen-4-one] |  | 
> 100 µM | mono-BCRP selectivity | Cc1ccc2oc(-c3ccc(OCCCCc4cn(CCOCCOc5ccc(-c6oc7ccccc7c(=O)c6OCc6ccccc6)cc5)nn4)cc3)cc(=O)c2c1 [Ac5Az10, 3-(Benzyloxy)-2-(4-(2-(2-(4-(4-(4-(6-methyl-4-oxo-4H-chromen-2-yl)phenoxy)butyl)-1H-1,2,3-triazol-1-yl)ethoxy)ethoxy)phenyl)-4H-chromen-4-one] | about 80.0% | >13333.3
< 12.1 µM |  | Cc1ccc2oc(-c3ccc(OCCCCc4cn(CCOCCOc5ccc(-c6oc7ccccc7c(=O)c6O)cc5)nn4)cc3)cc(=O)c2c1 [Ac5Az100H, 3-Hydroxy-2-(4-(2-(2-(4-(4-(4-(6-methyl-4-oxo-4H-chromen-2-yl)phenoxy)butyl)-1H-1,2,3-triazol-1-yl)ethoxy)ethoxy)phenyl)-4H-chromen-4-one] |  | 
> 100 µM | mono-BCRP selectivity | O=c1[nH]c(-c2ccc(OCCCc3cn(CCOCCOc4ccc(-c5cc(=O)c6ccccc6o5)cc4)nn3)cc2)nc2ccccc12 [Ac11Az1, 2-(4-(3-(1-(2-(2-(4-(4-Oxo-4H-chromen-2-yl)phenoxy)ethoxy)ethyl)-1H-1,2,3-triazol-4-yl)propoxy)phenyl)quinazolin-4(3H)-one] |  | >3225.8
< 12.1 µM |  | O=c1[nH]c(-c2ccc(OCCCc3cn(CCOCCOCCOc4ccc(-c5cc(=O)c6ccccc6o5)cc4)nn3)cc2)nc2ccccc12 [Ac11Az2, 2-(4-(3-(1-(2-(2-(2-(4-(4-oxo-4H-chromen-2-yl)phenoxy)ethoxy)ethoxy)ethyl)-1H-1,2,3-triazol-4-yl)propoxy)phenyl)quinazolin-4(3H)-one] |  | 
32.2 µM |  | C#CCOCCOc1ccc2c(=O)cc(-c3ccccc3)oc2c1 [Ac13, 2-Phenyl-7-(2-(prop-2-yn-1-yloxy)ethoxy)-4H-chromen-4-one] |  | 
< 12.1 µM |  | O=c1cc(-c2ccc(OCCOCCOCCn3cc(COCCOc4ccc5c(=O)cc(-c6ccccc6)oc5c4)nn3)cc2)oc2ccccc12 [Ac13Az2, 7-(2-((1-(2-(2-(2-(4-(4-Oxo-4H-chromen-2-yl)phenoxy)ethoxy)ethoxy)ethyl)-1H-1,2,3-triazol-4-yl)methoxy)ethoxy)-2-phenyl-4H-chromen-4-one] |  | 
 | mono-BCRP selectivity | O=c1cc(-c2ccccc2)oc2cc(OCCOCCn3cc(COCCOc4ccc5c(=O)cc(-c6ccccc6)oc5c4)nn3)ccc12 [Ac13Az11, 7-(2-((1-(2-(2-((4-Oxo-2-phenyl-4H-chromen-7-yl)oxy)ethoxy)ethyl)-1H-1,2,3-triazol-4-yl)methoxy)ethoxy)-2-phenyl-4H-chromen-4-one] |  | 
< 12.1 µM | mono-BCRP selectivity | O=c1cc(-c2ccccc2)oc2cc(OCCOCCOCCn3cc(COCCOc4ccc5c(=O)cc(-c6ccccc6)oc5c4)nn3)ccc12 [Ac13Az12, 7-(2-((1-(2-(2-(2-((4-Oxo-2-phenyl-4H-chromen-7-yl)oxy)ethoxy)ethoxy)ethyl)-1H-1,2,3-triazol-4-yl)methoxy)ethoxy)-2-phenyl-4H-chromen-4-one] |  | 
 | mono-BCRP selectivity | O=c1cc(-c2ccccc2)oc2cc(OCCOCCOCCn3cc(CN(Cc4ccccc4)Cc4cn(CCOCCOCCOc5ccc6c(=O)cc(-c7ccccc7)oc6c5)nn4)nn3)ccc12 [Ac15Az12, 7,7′-(((((((4,4′-((Benzylazanediyl)bis(methylene))bis(1H-1,2,3-triazole-4,1-diyl))bis(ethane-2,1-diyl))bis(oxy))bis(ethane-2,1-diyl))bis(oxy))bis(ethane-2,1-diyl))bis(oxy))bis(2-phenyl-4H-chromen-4-one)] |  | 
58.2 µM |  | C#CCN(CCOc1ccc2c(=O)cc(-c3ccccc3)oc2c1)Cc1ccccc1 [Ac16, 7-(2-(Benzyl(prop-2-yn-1-yl)amino)ethoxy)-2-phenyl-4H-chromen-4-one] |  | 
> 100 µM |  | O=c1cc(-c2ccc(OCCOCCn3cc(CN(CCOc4ccc5c(=O)cc(-c6ccccc6)oc5c4)Cc4ccccc4)nn3)cc2)oc2ccccc12 [Ac16Az1, 7-(2-(Benzyl((1-(2-(2-(4-(4-oxo-4H-chromen-2-yl)phenoxy)ethoxy)ethyl)-1H-1,2,3-triazol-4-yl)methyl)amino)ethoxy)-2-phenyl-4H-chromen-4-one] | 80.0% | 
> 100 µM |  | O=c1cc(-c2ccc(OCCOCCOCCn3cc(CN(CCOc4ccc5c(=O)cc(-c6ccccc6)oc5c4)Cc4ccccc4)nn3)cc2)oc2ccccc12 [Ac16Az2, 7-(2-(Benzyl((1-(2-(2-(2-(4-(4-oxo-4H-chromen-2-yl)phenoxy)ethoxy)ethoxy)ethyl)-1H-1,2,3-triazol-4-yl)methyl)amino)ethoxy)-2-phenyl-4H-chromen-4-one] |  | 
 | mono-BCRP selectivity | [N-]=[N+]=NCCOCCOCCOc1ccc(-c2oc3ccccc3c(=O)c2OCc2ccccc2)cc1 [Az5, 2-(4-(2-(2-(2-Azidoethoxy)ethoxy)ethoxy)phenyl)-3-(benzyloxy)-4H-chromen-4-one] |  | 
 | mono-BCRP selectivity | [N-]=[N+]=NCCOCCOCCOc1ccc(-c2cc(=O)c3cc(Cl)cc(Cl)c3o2)cc1 [Az6, 2-(4-(2-(2-(2-Azidoethoxy)ethoxy)ethoxy)phenyl)-6,8-dichloro-4H-chromen-4-one] |  | 
67.5 µM | mono-BCRP selectivity | COC(=O)c1cccc(COc2c(-c3ccc(OCCOCCN=[N+]=[N-])cc3)oc3ccccc3c2=O)c1 [Az8, Methyl 3-(((2-(4-(2-(2-azidoethoxy)ethoxy)phenyl)-4-oxo-4H-chromen-3-yl)oxy)methyl)benzoate] |  | 562.5

Structure (SMILES) | IC50 at 5 days (in vitro) | Selectivity for ABC transporters (P-gp, MRP1, BCRP) [1] | % of reversion of sensitivity of MCF7-MX100 towards topotecan (BCRP) | Topotecan resistance of MCF7-MX100 Therapeutic index (BCRP)
Cc1ccc2oc(-c3ccc(OCCCCc4cn(CCN(CCOc5ccc6c(=O)cc(-c7ccccc7)oc6c5)Cc5ccccc5)nn4)cc3)cc(=O)c2c1 [Ac5Az15, 2-(4-(4-(1-(2-(Benzyl(2-((4-oxo-2-phenyl-4H-chromen-7-yl)oxy)ethyl)amino)ethyl)-1H-1,2,3-triazol-4-yl)butoxy)phenyl)-6-methyl-4H-chromen-4-one] |  | P-gp and MRP1-dual-selectivity |  | 
O=c1cc(-c2ccccc2)oc2cc(OCCCCc3cn(CCOCCOCCOc4ccc(-c5oc6ccccc6c(=O)c5OCc5ccccc5)cc4)nn3)ccc12 [Ac12Az5, 3-(Benzyloxy)-2-(4-(2-(2-(2-(4-(4-((4-oxo-2-phenyl-4H-chromen-7-yl)oxy)butyl)-1H-1,2,3-triazol-1-yl)ethoxy)ethoxy)ethoxy)phenyl)-4H-chromen-4-one] |  | multi-selectivity towards P-gp, MRP1 and BCRP transporters |  | 
